The source of these data is patent US20110256241A1, “METHODS AND COMPOSITIONS FOR THE TREATMENT OF CANCER” (TRASLATIONAL CANCER DRUGS PHARMA, S.L., priority 2008, published 2011).

One data set relates to H460 MN58R cells. As to the kind of experiment: Cell proliferation assay (MTT). It counts as cell-based, human. The protocol:
(§1) Cell lines resistant to MN58b and RSM-932A (identified as MN58R and RSM-932A-R, respectively) were generated by prolonged continuous exposure to increasing concentrations of each drug. A parallel control (H460 stock) of the cell line in the absence of the compounds was kept in culture for the same time.
(§2) Cells were seeded on 96-well plates (BD, Falcon, Bioscience, San Jose, Calif., USA) at a density of 6000 cells/well, and incubated for 24 h under standard conditions. Then, cells were treated with different concentrations of the ChoK inhibitors (quadruplicates of each concentration) and maintained for 72 hours. […] Absorbance is read at 595 nm in a VersaMax Microplate Reader (Molecular Devices, Sunnyvale, Calif., USA). For sensitization with acid ceramidase inhibitor, cells were pre-treated […] with the correspondent IC50 for NOE before treatment with ChoK inhibitors. NOE (N-Oleoyl ethanolamine) was obtained from Calbiochem (La Jolla, Calif., USA).
(§3) To further study the mechanism underlying resistance to ChoK inhibition, as well as the implication of acid ceramidase in this effect, we used the human NSCLC-derived H460 cell line for a set of in vitro experiments. Maintaining this cell line in culture for 9 months with slightly increasing doses cycles of MN58b and a second-generation ChoKα inhibitor, RSM-932A, we established new cell lines with acquired resistance to these ChoKα inhibitors. A control cell line (H460 stock) was also established maintaining H460 in culture for the same time without treatment. Thus, established cells resistant to MN58b (H460 MN58R) and resistant to RSM-932A (H460 RSM-932A-R) were not affected at concentrations where normal H460 cells or control H460stock cells were dramatically affected. […] Furthermore, we found a strong cross-resistance between both ChoK inhibitors as it could be expected due to the similar mechanisms of action of these two antitumoral drugs (Table 9).

For another data set, the system named is H460 RSM-932AR cells. As to the kind of experiment: Cell proliferation assay (MTT). Format: cell-based, human. The protocol: as §1, §2, §3
Another data set concerns H460stock cells. The experiment in a line: Cell proliferation assay (MTT). Format: cell-based, human. The protocol:
as §1, §2, §3

For data set [1], the system named is H460 cells. The experiment in a line: Cell proliferation assay (MTT). Format: cell-based, human. On the procedure: All cell lines used in this study were maintained under standard conditions of temperature (37° C.), humidity (95%), and carbon dioxide (5%). Human primary bronchial epithelial cells, NHBE (BEC) (Cambrex, CC-2541) were grown in BEGM (Bronchial Epithelial cell growth media) BulletKit (Cambrex, CC-3170). Human primary mammary epithelial cells, HMEC (Clonetics, CC-2551) were grown in MEBM medium supplemented with a bullet kit (Clonetics, CC-3150). Epithelial non-small lung cancer cells H460 and H1299, and small cell lung cancer cell lines H510 and H82 were maintained in RPMI supplemented with 10% Fetal Bovine Serum (FBS) (Life Technologies, Grand Island, N.Y.).
as §2
Thus, disruption in the levels of acid ceramidase may allow ChoK inhibitors to have a better effect in these cells. To verify this hypothesis, we used the previously characterized acid ceramidase inhibitor, N-Oleoylethanolamine (NOE) (Grijalvo S., Chem Phys Lipids. 2006; 144:69-84), to investigate if the inhibition of acid ceramidase sensitizes tumour cell lines to ChoK inhibitors. To that end, H460 cells were pre-treated with NOE for three hours to inhibit acid ceramidase.
H460 cells were pre-treated with these compounds for three hours to inhibit ceramidases. […] Furthermore, the combined use of ChoK inhibitors and acid ceramidase inhibitors provides a further stronger anticancer activity.

Data set [2] relates to primary cultures of tumours of patients with NSCLC. The experiment in a line: Primary cultures of NSCLC tumours, crystal violet quantification. It counts as cell-based, human. The following applies: primary NSCLC tumour cultures, 0-20 μM, 10 days. On the procedure:
Resected tissues from NSCLC patients were dissociated (Cell dissociation sieve-tissued grinder Kit CD1, SIGMA), and the obtained cells were seeded in 24 well plates (BD, Falcon, Bioscience, San Jose, Calif., USA). […] The final persistent population in each well was quantified by the method of Cristal Violet as previously described (Rodríguez-González, A. et al., Oncogene, 22:8803-8812). […]

For the next data set, the system named is H460 xenografts. The experiment in a line: NSCLC xenografts, in vivo tumor growth inhibition. The protocol: Indicated cells were resuspended in DMEM just before inoculation (10^6 cells/0.1 ml), and injected subcutaneously in nu/nu immunosuppressed mice. Mice were kept under standard laboratory conditions according to the guidelines of the Spanish Government. When tumours reached a mean volume of 0.1 cm^3, mice were randomized to control and treated groups. Treatments with the antitumoral agents (and vehicle for control mice) were performed i.p. with following the indicated schedules. Tumors were monitored three times a week by measuring the major (D) and minor (d) diameters, and tumour volume was calculated by V=(D*d^2)/2. Statistical analysis of significant changes in tumour growth was calculated using SPSS software v. 13.0.

For the next data set, the system named is SW620 cells. The experiment in a line: MTT cytotoxicity, ChoKI and TRAIL.
The subject of another data set is SW62 colon cancer cells. As to the kind of experiment: QT-PCR validation of 5-FU metabolization pathway genes. It counts as cell-based, human. The arrangement: key: DR (Down-regulation); UR (Up-regulation). The protocol:
(§4) 1 μg of RNA was used to generate cDNA using High-Capacity cDNA Archive Kit (Applied Biosystems), and quantitative real-time PCR was carried out in triplicate using the ABI PRISM 7700 Sequence Detector (Applied Biosystems). GAPDH and 18S ribosomal mRNA were amplified as internal controls. Probes used for amplification were from Applied Biosystems as Taqman Gene Expression Assays (ASAH1: HS00602774—M1 Taqman Probe, ASAH2: HS00184096_M1 Taqman Probe and ASAH3: HS00370322_M1 Taqman Probe, DUT: HS00798995_S1 Taqman Probe, TYMS: HS00426591_M1 Taqman Probe, UPP1: HS00427695—M1 Taqman Probe, RRM2: HS00357247_G1 Taqman Probe). The 2-^ΔΔCt method was used (Livak K J., Methods. 2001; 25:402-8) to calculate the relative expression of each gene.

The test system of another data set is DLD-1 colon cancer cells. Described as above. Format: cell-based, human. On the set-up: key: DR (Down-regulation); UR (Up-regulation). On the procedure:
as §4

The subject of the next data set is HT29 colon cancer cells. The description is as above. It counts as cell-based, human. On the set-up: key: DR (Down-regulation); UR (Up-regulation). On the procedure: as §4
For data set [3], the system named is H460 cells. The experiment in a line: Affymetrix gene expression analysis of 5-FU metabolization pathway. It counts as cell-based, human. On the set-up: key to RRM2 (Ribonucleotide Reductase) gene expression / TYMS (Thymidylate synthetase) gene expression / DUT (Deoxyuridine triphosphatase) gene expression: Signal Log Ratio, base 2 (1.0 = 2-fold increase, 0 = no change). The protocol:
The RNAs from the biopsies selected were isolated for microarrays and QT-PCR, using RNeasy Mini Kit (QIAGEN, Hilden, Germany) following the instructions of the manufactures. Samples were prepared and the array hybridized according to the Affymetrix GeneChip Expression Analysis Technical Manual. Hybridization to Affymetrix U133plus2 GeneChips (54,614 probe sets, representing 47,000 transcripts), staining, washing and scanning procedures were carried out at the Genomic Facility in the National Center of Biotechnology (Madrid, Spain) as described in www.affymetrix.com (Affymetrix, Santa Clara, Calif.). The Signal Log Ratio estimates the magnitude and direction of change of a transcript. The log scale used is base 2, thus a Signal Log Ratio of 1.0 indicates an increase of the transcript level by 2 fold and −1.0 indicates a decrease by 2 fold. A Signal Log Ratio of zero would indicate no change.
With the aim of further investigating the mechanism of ChoKIs sensitization to the antitumoral effect of 5-FU, a gene expression analysis of the 5-FU-metabolisation pathway was performed in H460 cells treated at different times with MN58b and RSM-932A using affymetrix technology.

The test system of a further data set is DLD-1 cells. The experiment in a line: Apoptosis detection by flow cytometry, Annexin V & IP. Format: cell-based, human. The following applies: DLD-1, 7 hours treatment. On the procedure: Cell death was analysed by flow cytometry using de Aposcreen Annexin V Apoptosis Kit (Southern Biotech) according to manufacturer procedures. Cells were seeded at 4×10^5 cells per well in six-well. Twenty-four hours later, cells were treated with the indicated compounds. Cells were rinsed twice in cold PBS and after removing it cells were resuspended in cold 1× binding buffer to a concentration from 1×10^6 to 1×10^7 cells/mL. 100 μl of these cells were collected in a flow cytometry tube and 10 μl of Annexin V were added. After gently vortexing, tubes were incubated for 15 minutes on ice, protected from light. Without washing, 380 μl of 1× binding buffer were added to each sample prior to 10 μl of propidium iodine. Cells were immediately analysed by flow cytometry.
The synergism observed in vitro was also analysed by flow cytometry using Annexin V & IP staining to distinguish between apoptosis and necrosis or late apoptosis. […] When DLD-1 cells are treated with TRAIL alone there is a 35% of apoptosis. In combination tumour cell death is amplified up to 50%. When DLD-1 are treated with RSM-932A (TCD-717) in combination with TRAIL there is a 55% increase in tumour cell death but mainly the necrotic or late apoptosis population because RSM-932A (TCD-717) has an effect that is faster than MN58. […]
(In flow cytometry, cells or beads pass a laser one at a time.)

Setting [4] is: FIG. 7B, combination given sequentially.

Protocol for SW620 cells: For this purpose, cells were seeded in 96 multiwell plates at a density of 1×10^4 cells/well 24 hours before treatment. Cells were treated with different concentrations of RSM-932A (ChoKI) or TRAIL for different times and the cell proliferation was quantified using the MTT [3-(4,5-Dimethylthiazol-2-yl)-2,5-Diphenyltetrazolium Bromide] colorimetric assay.

Consider `N.N.[Cl][Pt][Cl]` [Cisplatin, cisplatin, reference compound], for which the “IC 50” value in the data set with H460 MN58R cells stood at 2 µg/mL; in the data set with H460 RSM-932AR cells, 1.5 µg/mL; with H460stock cells it was 4.5 µg/mL; in the data set on H460 cells [1], 5 µg/mL. Also, the “RESISTANT (% of samples)” value in data set [2] is reported as 50%. Besides, the “RESISTANT (number of samples)” value in [2] was 31. In data set [2], the “SENSITIVES (% of samples)” value is reported as 50%. For the same molecule, in [2], the “SENSITIVES (number of samples)” value is 31. Besides, the “Statistical significance (p), tumour growth” value came out at 0.3 in the data set with H460 xenografts (FIG. 7A, single agents) and 0.441 in the data set with H460 xenografts (setting [4]).
In the case of `CN(c1ccc(Cl)cc1)c1cc[n+](Cc2ccc(-c3ccc(C[n+]4ccc(N(C)c5ccc(Cl)cc5)c5ccccc54)cc3)cc2)c2ccccc12.[Br-].[Br-]` [RSM-932A, 1,1′-(biphenyl-4, 4′-diylmethylene) bis[4-(4-chloro-N-methylanilino-)quinolinium]dibromide], the “cytotoxicity, percentage of cell death” value with SW620 cells (SW620, combination: ChoKI pre-treatment 2 hours, then TRAIL 24 h) is given as 9%. In the data set on SW62 colon cancer cells, the DUT expression entry is given as “DR”, the RRM expression entry is on record as “DR”, the TYM expression result is recorded as “DR” and the UPP expression entry was “UR”. In addition, in the data set on DLD-1 colon cancer cells, the DUT expression entry is on record as “DR”, the RRM expression entry is on record as “DR”, the TYM expression result is reported as “DR” and the UPP expression entry is “UR”. For the same molecule, in the data set with HT29 colon cancer cells, the DUT expression entry was “DR”, the RRM expression result is on record as “DR”, the TYM expression entry is given as “DR” and the UPP expression entry is reported as “UR”. Further, in the data set with H460 cells [3] (H460, 9 h), the “DUT (Deoxyuridine triphosphatase) gene expression” value was −1.12, the “RRM2 (Ribonucleotide Reductase) gene expression” value was −1.39, the “TYMS (Thymidylate synthetase) gene expression” value is −1.03 and the “UPP1 (Uridine phosphorylase 1) gene expression” value is given as “+1.83”. Further, in the data set on H460 cells [3] (H460, 24 h), the “DUT (Deoxyuridine triphosphatase) gene expression” value is recorded as −2.08, the “RRM2 (Ribonucleotide Reductase) gene expression” value was −3.69, the “TYMS (Thymidylate synthetase) gene expression” value is −2.73 and the “UPP1 (Uridine phosphorylase 1) gene expression” value is “+2.48”. In addition, the “Statistical significance (p), tumour growth” value in the data set on H460 xenografts (setting [4]) worked out at 0.157.

B1: TRAIL: extracellular domain of human TRAIL (amino acids 95-281) (protein, listed as Homo sapiens)
chain: TSEETISTVQEKQQNISPLVRERGPQRVAAHITGTRGRSNTLSSPNSKNEKALGRKINSWESSRSGHSFLSNLHLRNGELVIHEKGFYYIYSQTYFRFQEEIKENTKNDKQMVQYIYKYTSYPDPILLMKSARNSCWSKDAEYGLYSIYQGGIFELKENDRIFVSVTNEHLIDMDHEASFFGAFLVG
Consider B1, for which the “sensitivity to TRAIL” value with SW620 cells (SW620, FIG. 8B) was “nearly resistant”. Further, the apoptosis in the data set with DLD-1 cells was 35%.
